Source: PubChem BioAssay AID179 (DTP/NCI, 2004)
Values joined by “and” are separate entries in the source; they are usually repeats but may differ in a detail not shown here. Equal entries are not always repeated. Active and inactive are the calls of the source.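 The calls were made as follows: active = compounds giving half or more protection of infected cells from virus-caused growth loss, again on retest; inactive = the rest.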 Where a SMILES comes first, the peptide text is derived from it.

Test system: CEM cells HIV-1 protection, formazan growth assay
Assay: NCI AIDS Antiviral Assay
Details: for IC50: measured here: growth of uninfected CEM cells
How it was run: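 Soluble formazan readout of cell growth; CEM cells ± HIV-1; 5 drug concs. ≥50% protection → retest; ≥50% again = moderately active; reproducible 100% = confirmed active.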

| Compound | EC50 | IC50 | outcome |
| --- | --- | --- | --- |
| CN(C)c1ccc(/C=C(\C#N)c2cccc(I)c2)cc1 | > 2 µM | 0.129 µM | – |
| COc1cccc2c(Nc3ccc(S(=O)(=O)Nc4ncccn4)cc3)c3ccc([N+](=O)[O-])cc3nc12 | > 100 µM | > 100 µM | – |
| O=CC1CCC=CC1NC(=O)OCc1ccccc1 (configuration not stated) | – | – | inactive |
| O=C(CC(=O)N1N=C(n2ccc3ccccc32)CC1c1ccccc1)Nc1cccc(Cl)c1 (configuration not stated) | – | – | inactive |
| COC(=O)[C@@H]1CN(C(=O)c2ccccc2)C(=O)N1C(=O)OCc1ccccc1 | > 200 µM | > 200 µM | – |
| Cc1c2[nH]c(c1CCC(=O)O)/C=c1\[n-]/c(c(C)c1CCC(=O)O)=C\c1[n-]c(c(C)c1C(C)O)/C=c1\[nH]/c(c(C)c1C(C)O)=C\2.[Cl][Pt+2][Cl] (configuration not stated) | > 20.9 µM | 14.5 µM | – |
| O=C(N/N=C/c1ccccc1O)c1ccccc1O | > 20 µM | 2.34 µM | – |
| CCOC(=O)C(C)C(CCC#N)(C(=O)OCC)C(=O)OCC (configuration not stated) | > 200 µM | > 200 µM | – |
| O=C(Nc1ccc(Cl)cc1)Sc1nnc2c(n1)[nH]c1ccccc12 | 30.2 µM | > 200 µM | – |
| COc1cc2c3c(c1)[nH]c(=S)n3C(=O)CCS2 | > 200 µM | > 100 µM | – |
| N#C[C@H]1Nc2ccccc2[C@@H](O)C1O (some centres not stated) | > 1320 µM | > 1320 µM | – |
| Nn1c(Cc2ccccc2)nnc1Cc1ccccc1 | > 200 µM | > 200 µM | – |
| COCc1ccc2c(c1)C(O)NC(=O)O2 (configuration not stated) | > 200 µM | 58.9 µM | – |
| CC(=O)Oc1cc(S(=O)(=O)Nc2n[nH]c(Nc3ccc(C)cc3)n2)c(S)cc1Cl | 155 µM | 263 µM | – |
| Cc1ccc(S(=O)(=O)c2c(O)c3ccccc3n(C)c2=O)cc1 | > 200 µM | > 200 µM | – |
| COc1cccc(C2c3cc4c(cc3OC(N3CCOCC3)C2C)OCO4)c1O (configuration not stated) | > 200 µM | 3.09 µM | – |
| CC1(CC(=O)O)C(=O)CCCC1=O | – | – | inactive |
| C[CH2][Sn]([CH2]C)([O]C(=O)c1cccc(OC)c1)[O][Sn]([CH2]C)([CH2]C)[O]C(=O)c1cccc(OC)c1 | > 38.9 µM | 16.6 µM | – |
| C=C=CC(C)(O)c1ccc(-c2ccccc2)cc1 (configuration not stated) | > 191 µM | 45.7 µM | – |
| CC1(C)OC[C@@H]([C@H](O)C2C=CC(=O)S2)O1 (some centres not stated) | – | – | inactive |
| NCCCCC(NC(=O)C(CS)NC(=O)C(N)Cc1cnc[nH]1)C(=O)NC(Cc1ccccc1)C(=O)NC(Cc1c[nH]c2ccccc12)C(=O)NC(Cc1c[nH]c2ccccc12)C(N)=O (configuration not stated) | > 50.1 µM | > 50.1 µM | – |
| C/C(C=O)=C\c1ccc(N(C)C)cc1 | > 38 µM | > 38 µM | – |

| Compound | EC50 | IC50 | outcome |
| --- | --- | --- | --- |
| COc1cccc(CC2C(=O)NC(=O)NC2=O)c1 | > 200 µM | > 200 µM | – |
| N=CN=CC(=S)O[C@@H]1C(=O)N2CCC[C@@]23CCCC[C@@H]13 | > 25.1 µM | > 25.1 µM | – |
| COc1ccc(C2NC(=O)N3C(c4ccc(OC)cc4)NC(=O)N23)cc1 (configuration not stated) | – | – | inactive |
| CC(CCN1CCN(CCC(C)CC(C)(C)C)S1(=O)=O)CC(C)(C)C (configuration not stated) | – | – | inactive |
| OC1(c2ccccc2)c2ccccc2CCC1Br (configuration not stated) | > 200 µM | 56.2 µM | – |
| O=C(Nc1cc(Cl)c(Cl)cc1Cl)C(=O)C1C(=O)NC(=S)NC1=O | – | – | inactive |
| C[C@@]1(O)C2CC3CC1(c1ccccc1)CC(/C3=N/O)/C2=N\O (some centres not stated) | > 200 µM | > 200 µM | – |
| CC(C)(c1ccccc1)c1ccc(Oc2ccc(C#N)c(C#N)c2)cc1 | > 29.5 µM | 28.8 µM | – |
| O=Nc1c(-c2ccccc2)nc2cnccn12 | > 200 µM | 5.89 µM | – |
| NNC(=O)CSc1nc2ccccc2c(=O)n1N | > 200 µM | > 200 µM | – |
| CC(=O)C1Cn2c(=O)c3cc4ccccc4cc3c(=O)n2C=C1C (configuration not stated) | > 112 µM | > 112 µM | – |
| CC1(C)N(OC2CCCCO2)C(c2ccccc2)C(c2ccccc2)=[N+]1[O-] (configuration not stated) | > 200 µM | 35.5 µM | – |
| CCOC(=O)c1cc(C2(O)CCN(CC(C)CC)C2=O)c(-c2cc(C)no2)[nH]1 (configuration not stated) | > 200 µM | > 200 µM | – |
| CC(=O)N[C@@H]1C(O)CN2C(=O)C(=O)O[C@H](C(O)CO)[C@@H]12 (some centres not stated) | – | – | inactive |
| O=C(c1ccccc1)c1c(C(=O)c2ccccc2)c(-c2ccccc2)c2c(-c3ccccc3)sc(-c3ccccc3)c2c1-c1ccccc1 | – | – | inactive |
| CCC1CC2CN3CCc4c([nH]c5ccc(OC)cc45)C(COC(=O)c4ccc(OC)c(OC)c4)(C2)C13 (configuration not stated) | – | – | inactive |
| C1CC2=C(C1)[Se]C(=C1Sc3nsnc3S1)[Se]2 | > 200 µM | 195 µM | – |
| COc1ccc2c(c1)OC1c3ccccc3OCC21 (configuration not stated) | – | – | inactive |
| O=C(Nc1ccc([N+](=O)[O-])cn1)Nc1cc([N+](=O)[O-])ccc1F | > 200 µM | 17.4 µM | – |
| CCCOCN1COCN=C1NC#N | > 447 µM | 417 µM | – |
| CCN(CC)CC(O)CN(CC(=O)Nc1c(C)cccc1C)CC(C)C (configuration not stated) | > 200 µM | > 200 µM | – |
| O=[N+]([O-])c1cccnc1NCC1(CO)CC(Cc2ccccc2)C1 (configuration not stated) | > 200 µM | 110 µM | – |

| Compound | EC50 | IC50 | outcome |
| --- | --- | --- | --- |
| OC[C@H]1CCCC1O (some centres not stated) | – | – | inactive |
| CCCCCCCCCCCCCCCCCC(=O)OCC(COC1OC(CS(=O)(=O)O)C(O)C(O)C1O)OC(=O)CCCCCCCCCCCCCCCCC (configuration not stated) | 11.7 µM and > 20.4 µM | 138 µM and > 20.4 µM | inactive |
| N#CC12C3C4CC5C6C4C1C6C(O)(C53)N2Cc1ccccc1 (configuration not stated) | > 447 µM | 257 µM | – |
| C[C@]12CCC(=O)C=C1CC[C@H]1[C@@H]3CC[C@@]4(OCC4=O)[C@@]3(C)C[C@H](O)[C@@]12F | > 123 µM | > 123 µM | – |
| COc1ccc2c(c1)C(C(=O)O)CC(=O)N2C (configuration not stated) | > 200 µM | > 200 µM | – |
| CC1COC(C)(C)P(c2ccccc2)C1 (configuration not stated) | > 1120 µM | > 1120 µM | – |
| Cc1nc2c(Cl)cc(Cl)cc2c(Cl)c1CCCl | > 200 µM | > 200 µM | – |
| N#Cc1ccc(-c2nc(C#N)c(N)o2)cc1 | 135 µM | > 200 µM | – |
| O[C@]12CCCC[C@H]1CCC2 | – | – | inactive |
| NNC(=S)N/N=C(\CC1OC(=O)c2ccccc21)c1ccccc1O (configuration not stated) | > 363 µM | 209 µM | – |
| CC1=C2c3ccccc3N(S(=O)(=O)c3ccccc3)[C@H]2[C@H](C(=O)N2C3CC4CC[C@@]3(CS2(=O)=O)C4(C)C)CC1 (some centres not stated) | 5.25 µM | 18.6 µM | – |
| CCC(C)C(NC(=O)CNC(=O)C(Cc1c[nH]c2ccccc12)NC(=O)C(NC(=O)C(NC(=O)C(N)CC(C)C)C(C)O)C(C)C)C(=O)NC(CCCCN)C(=O)NC(CCC(N)=O)C(=O)NC(CC(C)C)C(=O)NC(CCC(N)=O)C(=O)NC(C)C(=O)NC(CCCN=C(N)N)C(N)=O (configuration not stated) (H-LTVWGIKQLQAR-NH2; configuration not given here) | > 50.1 µM | > 50.1 µM | – |
| CCCCS(=O)(=O)CCC(N)C(=O)O (configuration not stated) | > 100 µM | > 100 µM | – |
| COC(=O)C(CNC(=O)/C=C/c1ccc(OC)c(OC)c1)NC(=O)/C=C/c1ccc(OC)c(OC)c1 (configuration not stated) | > 200 µM | 135 µM | – |
| CC1(C)COC2C(N(Cc3ccccc3)Cc3ccccc3)C(=O)N21 (configuration not stated) | – | – | inactive |
| O=C(c1cc(Cl)ccc1Cl)N1CCN(C(=O)c2cc(Cl)ccc2Cl)CC1 | > 200 µM | > 200 µM | – |
| Cc1ccc(S(=O)(=O)N/N=C2/C3CCC(C3)C2c2ccccc2)cc1 (configuration not stated) | > 200 µM | > 200 µM | – |
| O=S(=O)(c1ccc(Cl)cc1)S(=O)(=O)c1ccc(Cl)cc1 | 10.7 µM | 26.9 µM | – |
| O=C1/C(=C/c2ccccc2)CNC/C1=C\c1ccccc1 | – | – | inactive |
| O=C1C=CC(=O)N1n1c(-c2ccccc2)n[nH]c1=O | 95.5 µM | 955 µM | – |
| CCC(=O)NI1OC(=O)c2ccccc21 | > 200 µM | 81.3 µM | – |
| O=C(NCCN1CCOCC1)C1(O)N=C(c2ccccc2)c2ccsc2-n2cccc21 (configuration not stated) | > 200 µM | 123 µM | – |

| Compound | EC50 | IC50 | outcome |
| --- | --- | --- | --- |
| O=C(NCCCl)c1cc(C(F)(F)F)cc(C(F)(F)F)c1 | – | – | inactive |
| CN(C)CCNC(=O)c1noc2c1CSc1ccccc1-2 | > 407 µM | 28.2 µM | – |
| O=C1C2C3C=CC(C3)C2S(=O)(=O)C2C3C=CC(C3)C12 (configuration not stated) | > 324 µM | > 324 µM | – |
| CC(C)(C)[Si](C)(C)OCC1OC(n2ccc(=O)[nH]c2=O)C(O[Si](C)(C)C(C)(C)C)C1C/C(N)=N/O (configuration not stated) | > 200 µM | 6.61 µM and 30.9 µM | – |
| COc1ccc(N2C(N)=C(C#N)C(C#N)(C#N)C2c2cccc([N+](=O)[O-])c2)cc1 (configuration not stated) | > 200 µM | 5.89 µM | – |
| CC1=C([N+](=O)[O-])[C@@H](N2CCOCC2)[C@](C)(N2CCOCC2)S1 | – | – | inactive |
| Nc1o[nH]c(=O)c1C1CCCCC1 | > 200 µM | > 200 µM | – |
| COc1cc2c3c(c1OC)-c1ccccc1C(C(O)c1ccccc1)C3N(C)CC2 (configuration not stated) | – | – | inactive |
| CC(=O)c1c(-c2cccc3ccccc23)c(C#N)c(=S)n(C2OC(CO)C(O)C(O)C2O)c1-c1ccccc1 (configuration not stated) | > 200 µM | 24 µM and > 200 µM | – |
| CCOC(=O)C(C#N)C1=CC(=O)C(=O)c2ccc(O)cc21 (configuration not stated) | > 457 µM | 209 µM | – |
| O=C(Cc1ccccc1)NN1C(=O)C(Cl)C1c1ccc(O)cc1 (configuration not stated) | > 204 µM | 170 µM | – |
| CCOC(=O)/C(=C\c1ccc(C#N)cc1)[Se]c1ccccc1 | > 52.5 µM | > 52.5 µM | – |
| COC(=O)Nc1cn2ccc(Sc3ccccc3)cc2n1 | > 45.7 µM | 0.776 µM | – |
| O=C(O)CC1CC2CC(=O)C1C2 (configuration not stated) | > 200 µM | > 200 µM | – |
| CC1(C)N=C(c2ccccn2)C(c2ccccn2)=NC1(C)C | > 851 µM | 661 µM | – |
| CCOC(=O)c1cn(CC)c2cc3c(cc2c1=O)CCS3(=O)=O | > 200 µM | > 200 µM | – |
| CCCCCCCCCCC(O)CCCCCCC(=O)O (configuration not stated) | – | – | inactive |
| O=C(OCc1ccccc1)c1ccc(NCc2cc(O)ccc2O)cc1 | – | – | inactive |
| COC(=O)/C(=N/NC(=O)C[N+](C)(C)C)C(C(=O)OC)C(=O)C(=O)Nc1ccc(F)cc1 (configuration not stated) | > 145 µM | > 145 µM | – |
| O=C1NCc2ccccc2S(=O)(=O)n2cccc21 | > 200 µM | 120 µM | – |
| c1ccc(COc2ccc(CC3SCCCS3)cc2)cc1 | > 200 µM | > 200 µM | – |
| CCN1CCC(O)(c2ccc(Oc3ccc(Cl)cc3)cc2)C(C(=O)c2ccc(Oc3ccc(Cl)cc3)cc2)C1 (configuration not stated) | > 200 µM | 7.59 µM | – |
